Experimental findings from ChEMBL document CHEMBL3046778, “Design, synthesis and pharmacological screening of hybrid molecules as antihypertensives” (Med Chem Res, 2011) are described below.

The structures appear in SMILES notation.

The subject of series [1] is Rattus norvegicus. Kind of series: Toxicity in Rattus norvegicus Wistar (rat) assessed as heart rate at 40 mg/kg, ip measured after 60 min by ECG analysis (reference value: 307.62 +/- 0.053 bpm). Type of series: organism-based. Set-up: dose 40 mg/kg, route intraperitoneal. The note with it: in vivo, 1 h.
Series [2] deals with Heart. The experiment in a line: Inhibition of force of contraction in Hoplobatrachus tigerinus (frog) heart at log dose 2. Type of series: functional.
Series [3] relates to Rattus norvegicus. Kind of series: Toxicity in Rattus norvegicus Wistar (rat) assessed as Rmax at 40 mg/kg, ip measured after 45 min by ECG analysis (reference value: 0.08 +/- 0.008 mv). Type of series: organism-based. Set-up: dose 40 mg/kg, route intraperitoneal. The note with it: in vivo, 0.75 h.
Series [4] has as its system Heart. The experiment in a line: Inhibition of force of contraction in Hoplobatrachus tigerinus (frog) heart at log dose 2.6. The format is functional.
In series [5] the test system is Rattus norvegicus. Kind of series: Toxicity in Rattus norvegicus Wistar (rat) assessed as Rmax at 40 mg/kg, ip measured after 60 min by ECG analysis (reference value: 0.07 +/- 0.004 mv). The format is organism-based. Further details: dose 40 mg/kg, route intraperitoneal. The settings on record: in vivo, 1 h.
The test system of series [6] is Rattus norvegicus. The experiment in a line: Toxicity in Rattus norvegicus Wistar (rat) assessed as Rmax at 40 mg/kg, ip measured after 30 min by ECG analysis (reference value: 0.08 +/- 0.008 mv). Type of series: organism-based. Set-up: dose 40 mg/kg, route intraperitoneal. The settings on record: in vivo, 0.5 h.
The subject of series [7] is Rattus norvegicus. Kind of series: Toxicity in Rattus norvegicus Wistar (rat) assessed as heart rate at 40 mg/kg, ip measured after 30 min by ECG analysis (reference value: 307.62 +/- 0.439 bpm). Further details: dose 40 mg/kg, route intraperitoneal. The settings on record: in vivo, 0.5 h. The format is organism-based.
Series [8] deals with Rattus norvegicus. The experiment in a line: Toxicity in Rattus norvegicus Wistar (rat) assessed as heart rate at 40 mg/kg, ip measured after 45 min by ECG analysis (reference value: 307.62 +/- 0.023 bpm). Set-up: dose 40 mg/kg, route intraperitoneal. The settings on record: in vivo, 0.75 h. Type of series: organism-based.
For series [9], the system named is Heart. The experiment in a line: Inhibition of force of contraction in Hoplobatrachus tigerinus (frog) heart at log dose 2.3. The format is functional.
In series [10] the test system is Heart. The experiment in a line: Inhibition of force of contraction in Hoplobatrachus tigerinus (frog) heart at log dose 2.9. Type of series: functional.
Series [11] relates to Heart. Kind of series: Inhibition of force of contraction in Hoplobatrachus tigerinus (frog) heart at log dose 3. Type of series: functional.
For series [12], the system named is Rattus norvegicus. Kind of series: Toxicity in Rattus norvegicus Wistar (rat) assessed as Rmax at 50 mg/kg, ip measured after 60 min by ECG analysis (reference value: 0.07 +/- 0.004 mv). Type of series: organism-based. Set-up: dose 50 mg/kg, route intraperitoneal. The settings on record: in vivo, 1 h.
The test system of series [13] is Rattus norvegicus. Kind of series: Toxicity in Rattus norvegicus Wistar (rat) assessed as heart rate at 50 mg/kg, ip measured after 30 min by ECG analysis (reference value: 307.62 +/- 0.439 bpm). The format is organism-based. Further details: dose 50 mg/kg, route intraperitoneal. The note with it: in vivo, 0.5 h.
Series [14] deals with Rattus norvegicus. Kind of series: Toxicity in Rattus norvegicus Wistar (rat) assessed as heart rate at 50 mg/kg, ip measured after 45 min by ECG analysis (reference value: 307.62 +/- 0.023 bpm). The note with it: in vivo, 0.75 h. Set-up: dose 50 mg/kg, route intraperitoneal. The format is organism-based.
The subject of series [15] is Rattus norvegicus. Kind of series: Toxicity in Rattus norvegicus Wistar (rat) assessed as Rmax at 50 mg/kg, ip measured after 30 min by ECG analysis (reference value: 0.08 +/- 0.008 mv). Further details: dose 50 mg/kg, route intraperitoneal. The format is organism-based. The settings on record: in vivo, 0.5 h.
For series [16], the system named is Rattus norvegicus. The experiment in a line: Toxicity in Rattus norvegicus Wistar (rat) assessed as heart rate at 50 mg/kg, ip measured after 60 min by ECG analysis (reference value: 307.62 +/- 0.053 bpm). The format is organism-based. Further details: dose 50 mg/kg, route intraperitoneal. The settings on record: in vivo, 1 h.
The subject of series [17] is Rattus norvegicus. Kind of series: Toxicity in Rattus norvegicus Wistar (rat) assessed as Rmax at 50 mg/kg, ip measured after 45 min by ECG analysis (reference value: 0.08 +/- 0.008 mv). Type of series: organism-based. Set-up: dose 50 mg/kg, route intraperitoneal. The settings on record: in vivo, 0.75 h.
Series [18] deals with Rattus norvegicus. The experiment in a line: Toxicity in Rattus norvegicus Wistar (rat) assessed as Rmax at 10 mg/kg, ip measured after 30 min by ECG analysis (reference value: 0.08 +/- 0.008 mv). Type of series: organism-based. Further details: dose 10 mg/kg, route intraperitoneal. The note with it: in vivo, 0.5 h.
Series [19] relates to Rattus norvegicus. The experiment in a line: Toxicity in Rattus norvegicus Wistar (rat) assessed as Rmax at 10 mg/kg, ip measured after 45 min by ECG analysis (reference value: 0.08 +/- 0.008 mv). Type of series: organism-based. Set-up: dose 10 mg/kg, route intraperitoneal. The note with it: in vivo, 0.75 h.
In series [20] the test system is Rattus norvegicus. The experiment in a line: Toxicity in Rattus norvegicus Wistar (rat) assessed as Rmax at 10 mg/kg, ip measured after 60 min by ECG analysis (reference value: 0.07 +/- 0.004 mv). Type of series: organism-based. Further details: dose 10 mg/kg, route intraperitoneal. The settings on record: in vivo, 1 h.
In series [21] the test system is Rattus norvegicus. Kind of series: Toxicity in Rattus norvegicus Wistar (rat) assessed as heart rate at 10 mg/kg, ip measured after 30 min by ECG analysis (reference value: 307.62 +/- 0.035 bpm). The format is organism-based. Set-up: dose 10 mg/kg, route intraperitoneal. The settings on record: in vivo, 0.5 h.
The test system of series [22] is Rattus norvegicus. Kind of series: Toxicity in Rattus norvegicus Wistar (rat) assessed as heart rate at 10 mg/kg, ip measured after 60 min by ECG analysis (reference value: 307.62 +/- 0.053 bpm). Set-up: dose 10 mg/kg, route intraperitoneal. The settings on record: in vivo, 1 h. Type of series: organism-based.
In series [23] the test system is Rattus norvegicus. Kind of series: Toxicity in Rattus norvegicus Wistar (rat) assessed as heart rate at 10 mg/kg, ip measured after 45 min by ECG analysis (reference value: 307.62 +/- 0.023 bpm). Type of series: organism-based. Further details: dose 10 mg/kg, route intraperitoneal. The settings on record: in vivo, 0.75 h.
Series [24] concerns Rattus norvegicus. The experiment in a line: Toxicity in Rattus norvegicus Wistar (rat) assessed as heart rate at 30 mg/kg, ip measured after 30 min by ECG analysis (reference value: 307.62 +/- 0.439 bpm). Type of series: organism-based. Further details: dose 30 mg/kg, route intraperitoneal. The settings on record: in vivo, 0.5 h.
For series [25], the system named is Rattus norvegicus. The experiment in a line: Toxicity in Rattus norvegicus Wistar (rat) assessed as Rmax at 30 mg/kg, ip measured after 45 min by ECG analysis (reference value: 0.08 +/- 0.008 mv). Type of series: organism-based. The settings on record: in vivo, 0.75 h. Further details: dose 30 mg/kg, route intraperitoneal.
Series [26] relates to Rattus norvegicus. The experiment in a line: Toxicity in Rattus norvegicus Wistar (rat) assessed as Rmax at 30 mg/kg, ip measured after 30 min by ECG analysis (reference value: 0.08 +/- 0.008 mv). Type of series: organism-based. Further details: dose 30 mg/kg, route intraperitoneal. The note with it: in vivo, 0.5 h.
The subject of series [27] is Rattus norvegicus. The experiment in a line: Toxicity in Rattus norvegicus Wistar (rat) assessed as Rmax at 30 mg/kg, ip measured after 60 min by ECG analysis (reference value: 0.07 +/- 0.004 mv). Type of series: organism-based. Further details: dose 30 mg/kg, route intraperitoneal. The settings on record: in vivo, 1 h.
For series [28], the system named is Rattus norvegicus. Kind of series: Toxicity in Rattus norvegicus Wistar (rat) assessed as heart rate at 30 mg/kg, ip measured after 45 min by ECG analysis (reference value: 307.62 +/- 0.023 bpm). The format is organism-based. Further details: dose 30 mg/kg, route intraperitoneal. The settings on record: in vivo, 0.75 h.
The test system of series [29] is Rattus norvegicus. Kind of series: Toxicity in Rattus norvegicus Wistar (rat) assessed as heart rate at 30 mg/kg, ip measured after 60 min by ECG analysis (reference value: 307.62 +/- 0.053 bpm). Further details: dose 30 mg/kg, route intraperitoneal. The note with it: in vivo, 1 h. The format is organism-based.

On to `CCOC(=O)C1=C(C)N(CC(O)COc2ccc(/C=N/C(=S)Nc3ccc(Cl)cc3)cc2)C(=S)NC1c1cccc([N+](=O)[O-])c1` (stereo not given), for which the Activity in [1] is 260.42 bpm; in [3], 0.01 mV; in series [5], 0.07 mV; in series [6], 0.03 mV; in series [7], 323.85 bpm; in series [8] it was 299.78 bpm. Also, the “inhibition (INH)” value in series [2] is 13%; in series [4], 4%; in series [9] it was 20%; in series [10] it was 25%.

Turning to `CCOC(=O)C1=C(C)N(CC(O)COc2ccc(/C=N/C(=S)Nc3ccccc3OC)cc2)C(=S)NC1c1cccc([N+](=O)[O-])c1` (stereo not given), the Activity in series [1] stood at 215.7 bpm; in series [3], 0.03 mV; in [5], 0.19 mV; in series [6] it was 0.08 mV; in [7], 226.62 bpm; in series [8] it was 214.17 bpm. In addition, the “inhibition (INH)” value was 32% in series [2]; 23% in series [4]; 36% in series [11]; 10% in [9]; 22% in series [10].

On to `CCOC(=O)C1=C(C)N(CC(O)COc2ccc(/C=N/C(=S)Nc3ccc(C(=O)O)cc3)cc2)C(=S)NC1c1cccc([N+](=O)[O-])c1` (stereo not given), for which the “inhibition (INH)” value worked out at 23% in series [2], 25% in series [4], 5% in series [9] and 30% in series [10]. Moreover, the Activity was 0.12 mV in series [12]; 399.26 bpm in [13]; 399.26 bpm in [14]; 0.03 mV in series [15]; 399.26 bpm in series [16]; 0.05 mV in series [17].

Turning to `CC(C)NCC(O)COc1cccc2ccccc12` (stereo not given) [PROPRANOLOL], the Activity amounted to 0.04 mV in series [18]; 0.02 mV in series [19]; 0.13 mV in [20]; 400 bpm in series [21]; 333 bpm in series [22]; 333 bpm in series [23].

On to `CCOC(=O)C1=C(C)N(CC(O)COc2ccc(/C=N/C(=S)Nc3ccccc3OC)cc2)C(=S)NC1c1ccccc1[N+](=O)[O-]` (stereo not given), for which the Activity in [1] was 266.08 bpm; in series [3] it was 0.05 mV; in series [5], 0.13 mV; in series [6] it was 0.1 mV; in [7], 266.08 bpm; in series [8] it was 266.08 bpm. Moreover, the “inhibition (INH)” value in series [2] was found to be 25%; in series [4], 20%; in series [11], 31%; in series [9], 38%; in series [10], 20%.

`CCOC(=O)C1=C(C)N(CC(O)COc2ccc(/C=N/C(=S)Nc3ccc(OC)cc3)cc2)C(=S)NC1c1ccccc1[N+](=O)[O-]` (stereo not given): the Activity in [1] is listed as 266.41 bpm; in series [3], 0.02 mV; in series [5] it was 0.13 mV; in series [6] it was 0.09 mV; in series [7], 272.19 bpm; in [8], 266.41 bpm. In addition, the “inhibition (INH)” value in series [2] worked out at 30%; in series [4], 50%; in series [9], 50%; in series [10], 66%.

For `CCOC(=O)C1=C(C)N(CC(O)COc2ccc(/C=N/C(=S)Nc3ccc(OC)cc3)cc2)C(=S)NC1c1cccc([N+](=O)[O-])c1` (stereo not given), the Activity in series [1] was 300.22 bpm; in [3] it was 0.07 mV; in [5], 0.14 mV; in [6], 0.04 mV; in [7], 315.87 bpm; in series [8], 300.22 bpm. The “inhibition (INH)” value stood at 50% in series [2], 43% in [4], 43% in [9] and 50% in series [10].

As to `CCOC(=O)C1=C(C)N(CC(O)COc2ccc(/C=N/C(=S)Nc3ccc(Cl)cc3)cc2)C(=S)NC1c1ccccc1[N+](=O)[O-]` (stereo not given), the Activity in series [1] was 315.25 bpm; in [3] it was 0.02 mV; in [5], 0.09 mV; in series [6] it was 0.08 mV; in series [7], 324.05 bpm; in series [8], 324.05 bpm. The “inhibition (INH)” value in series [2] was 23%; in [4] it was 18%; in series [11], 50%; in series [9], 16%; in [10] it was 18%.

With `COC(=O)C1=C(C)NC(C)=C(C(=O)OC)C1c1ccccc1[N+](=O)[O-]` [NIFEDIPINE], the Activity in series [24] is 363.63 bpm; in series [25], 0.1 mV; in series [26] it was 0.04 mV; in [27], 0.15 mV; in series [28], 425.61 bpm; in series [29], 521.73 bpm.
